“And” between values parts separate entries of the source, which are not always exact repeats. Identical values can stand only once. Like-named read-outs stand apart in the source and are kept apart here.
Legend:
[1] = tested on: ecNOS mRNA; test: Northern blotting of ecNOS steady-state mRNA in endothelial cells; format: cell-based, human; design: ecNOS mRNA levels increased to / ecNOS mRNA levels, % of basal levels / effect on basal ecNOS mRNA levels: unit of the concentration uncertain; details: for increase in ecNOS mRNA levels compared to ox-LDL: co-treatment with ox-LDL, simvastatin 0.1 mmol/L; for ecNOS mRNA levels, % of basal levels: hypoxia + simvastatin (1 (unit uncertain))
Description: Equal amounts of total RNA (10-20 mg) were separated by 1.2% formaldehyde-agarose gel electrophoresis and transferred overnight onto Hybond nylon membranes. […] All Northern blots were subjected to stringent washing conditions (0.2× SSC/0.1% SDS at 65° C.) prior to autoradiography. RNA loading was determined by rehybridization with human GAPDH probe.

[2] = tested on: ecNOS; test: ecNOS activity, LNMA-inhibitable nitrite production (modified nitrite assay); format: cell-based, human
[3] = tested on: ecNOS mRNA; test: ecNOS mRNA half-life in the presence of actinomycin D; format: cell-based, human; details: for half-life of ecNOS mRNA (t1/2) / ecNOS mRNA half-life: actinomycin D; for ecNOS mRNA half-life: simvastatin 1 mM
[4] = tested on: ecNOS; test: ecNOS activity from tissues, arginine to citrulline conversion in mouse aortae; format: in vivo, SV-129 mice; details: 2 mg/kg, 14 days
Description: The ecNOS activities in mice aortae and brains were measured by the conversion of [^3H]arginine to [^3H]citrulline in the presence and absence of LNMA (5 mM) as described earlier.

[5] = tested on: ecNOS mRNA; test: Quantitative RT-PCR of ecNOS mRNA in mouse aortae and brains; format: in vivo, SV-129 mice; details: dose-dependent, 14 days
Source text: Total RNA from mouse aortae and brains was isolated by the guanidinium isothiocyanate method and reverse transcribed using oligo-dT (mRNA Preamplification reagents; Gibco BRL) and Taq ploymerase (Perkin-Elmer). One tenth of the sDNA was used as template for the PCR reaction. […] [NT] ID NO. 1) and 3'Primer: […] For amplification of glyceraldehyde 3-phosphate dehydrogenase (GAPDH), 0.1 nmol of the following primers amplifying a 452-bp fragment were used: 5'Primer: [NT] ID NO. 3) and 3' Primer: […] NO. 4). Denaturing was performed at 94° C. for 30 s, annealing at 60° C. for 30 s, and elongation at 72° C. for 60 s.

[6] = tested on: cerebral ischemia, left middle cerebral artery (MCA) occlusion; test: Murine model of cerebral vascular ischemia (MCA occlusion); format: in vivo, SV-129 mice
Source text: Ischemia was produced by occluding the left middle cerebral artery (MCA) with a coated 8.0 nylon monofilament under anesthesia as described (Huang, Z et al., J Cereb Blood Flow Metab, 1996, 16:981-987, Huang, Z et al., Science, 1994, 265:1883-1885, Hara, H et al., J Cereb Blood Flow Metab, 1997, 1:515-526). Arterial blood pressure, heart rate, arterial oxygen pressure, and partial pressure of carbon dioxide were monitored as described (Huang, Z et al., J Cereb Blood Flow Metab, 1996, 16:981-987, Huang, Z et al., Science, 1994, 265:1883-1885, Hara, H et al., J Cereb Blood Flow Metab, 1997, 1:515-526). The filaments were withdrawn after 2 hours and after 24 h, mice were either sacrificed or tested for neurological deficits using a well-established, standardized, observer-blinded protocol as described (Huang, Z et al., J Cereb Blood Flow Metab, 1996, 16:981-987, Huang, Z et al., Science, 1994, 265:1883-1885, Hara, H et al., J Cereb Blood Flow Metab, 1997, 1:515-526). The motor deficit score range from 0 (no deficit) to 2 (complete deficit).
Brains were divided into five coronal 2-mm sections using a mouse brain matrix (RBM-200C, Activated Systems, Ann Arbor, Mich., USA). Infarction volume was quantitated with an image analysis system (M4, St. Catharines, Ontario, Canada) on 2% 2,3,5-triphenyltetrazolium chloride stained 2-mm slices. The levels of serum cholesterol, creatinine and transaminases were determined by the Tufts University Veterinary Diagnostic Laboratory (Grafton, Mass.).

[7] = tested on: ecNOS protein; details: for increase in ecNOS protein levels compared to ox-LDL alone: co-treatment with ox-LDL, simvastatin 0.1 mmol/L; for ecNOS protein levels, % of basal levels: hypoxia (3% O2)
[8] = tested on: ecNOS gene transcription; test: Nuclear run-on assay of ecNOS gene transcription
[9] = tested on: human endothelial cells; test: Cellular viability (cell count, morphology, Trypan blue exclusion); details: simvastatin 0.01 to 0.1 mmol/L, lovastatin 10 mmol/L, up to 96 h
[10] = ox-LDL + simvastatin 0.1 mmol/L
[11] = simvastatin 1 mM alone (20% O2)
[12] = wild-type mice, 2 mg/kg, 14 days

SMILES: CCC(C)(C)C(=O)O[C@H]1C[C@@H](C)C=C2C=C[C@H](C)[C@H](CC[C@@H]3C[C@@H](O)CC(=O)O3)[C@H]21 [simvastatin]
- increase in ecNOS mRNA levels compared to ox-LDL ([1]; 48 h): 6.3 fold
- increase in ecNOS mRNA levels compared to ox-LDL ([1]; 72 h): 14.5 fold
- ecNOS mRNA levels, % of basal levels ([1]; 24 h): 195±12%
- ecNOS mRNA levels, % of basal levels ([1]; 48 h): 530±30%
- ecNOS mRNA levels increased to ([1]; simvastatin (1 (unit uncertain)) alone, normoxia): 340±24%
- decrease in ecNOS activity compared to untreated cells [2, 10]: 28±3%
- ecNOS-dependent nitrite production [2, 10]: 6.4±0.3 nmol/500,000 cells/24 h
- ecNOS-dependent nitrite production ([2]; ox-LDL + simvastatin 1 mmol/L): 12.8±2.7 nmol/500,000 cells/24 h
- increase in ecNOS activity compared to baseline ([2]; ox-LDL + simvastatin 1 mmol/L): 45±6%
- nitrite production [2, 11]: 30±6.5 nmol/500,000 cells/24 h
- upregulation of nitrite production [2, 11]: 5 fold
- increase in ecNOS activity over basal activity ([2]; simvastatin 1 mM, 3% O2, 24 h): 3 fold
- nitrite production ([2]; simvastatin 1 mM, 3% O2, 24 h): 18±5.0 nmol/500,000 cells/24 h
- prolongation of ecNOS mRNA half-life ([3]; ox-LDL + simvastatin 0.1 mmol/L, versus ox-LDL): 1.6 fold
- half-life of ecNOS mRNA (t1/2) [3, 10]: 22 ± 3 h
- ecNOS mRNA half-life ([3]; hypoxic): 38 ± 4 h
- ecNOS mRNA half-life ([3]; normoxic): 46 ± 4 h
- prolongation of ecNOS mRNA half-life over baseline ([3]; simvastatin alone): 1.3 fold
- half-life of ecNOS mRNA (t1/2) ([3]; simvastatin alone): 43 ± 4 h
- ecNOS activity in aortae [4]: 0.39±0.09 U/mg protein
- increase of ecNOS message compared to that of GAPDH in aortae [5]: 3 fold
- increase in cerebral blood flow over basal values ([6]; 2 mg/kg): 23%
- improvement of neurological motor deficit score compared to controls ([6]; 2 mg/kg, 14 days): ~2 fold
- neurological motor deficit score ([6]; 2 mg/kg, 14 days, 2 h MCA occlusion, 22 hours of reperfusion, score 0 to 2): 0.8±0.2
- increase in cerebral blood flow over basal values ([6]; 20 mg/kg): 35%
- persistence of the effect on cerebral infarct size ([6]; mouse, in vivo): up to 3 days
- cerebral infarct size [6, 12]: 73.8±8.5 mm3
- smaller cerebral infarct sizes compared to untreated animals [6, 12]: 25%
- increase in ecNOS protein levels compared to ox-LDL alone ([7]; 24 h): 1.3 fold
- increase in ecNOS protein levels compared to ox-LDL alone ([7]; 72 h): 3.3 fold
- increase in ecNOS protein levels compared to ox-LDL alone ([7]; 96 h): 8.9 fold
- ecNOS protein levels, % of basal levels ([7]; 48 h, simvastatin 1 mM): 159±13%
- ecNOS protein levels, % of basal levels ([7]; 48 h, simvastatin 10 mM): 223±21%
- effect on ecNOS expression ([7]; not chemically-activated statin (10)): no effect
- decrease in ecNOS protein ([7]; ox-LDL + simvastatin 0.01 mmol/L, 48 h): 57%±8%
- decrease in ecNOS protein level ([7]; ox-LDL + simvastatin 0.1 mmol/L, 24 h): 15% (2%
- decrease in ecNOS protein ([7]; ox-LDL + simvastatin 0.1 mmol/L, 48 h): 4%±7%
- ecNOS protein levels increased above basal expression ([7]; ox-LDL + simvastatin 0.1 mmol/L, 72 h): 110% (6%
- ecNOS protein levels increased above basal expression ([7]; ox-LDL + simvastatin 0.1 mmol/L, 96 h): 124% (6%
- ecNOS protein levels above baseline ([7]; ox-LDL + simvastatin 1 mmol/L, 48 h): 146%±9% and 150% (8%
- upregulation of ecNOS expression ([7]; simvastatin alone (1)): 2.9 fold
- decrease in ecNOS gene transcription ([8]; hypoxia + simvastatin 1 mM): 83±6%
- increase in ecNOS gene transcription ([8]; simvastatin alone, normoxic condition): 20±5%
- noticeable adverse effects on human endothelial cell [9]: Neither simvastatin (0.01 to 0.1 mmol/L) nor lovastatin (10 mmol/L) produced any noticeable adverse effects
